Experimental findings from paper PMC7151626, “Antioxidant and α-amylase Inhibitory Activities and Phytocompounds of Clausena indica Fruits” (Medicines, 2020) are described below.

In the experiment the target is T1, porcine pancreatic α-amylase (PPA) (Sus scrofa, UniProt P00690).
T1 construct: gene AMY2; native pancreatic enzyme
T1 sequence (P00690 16-511): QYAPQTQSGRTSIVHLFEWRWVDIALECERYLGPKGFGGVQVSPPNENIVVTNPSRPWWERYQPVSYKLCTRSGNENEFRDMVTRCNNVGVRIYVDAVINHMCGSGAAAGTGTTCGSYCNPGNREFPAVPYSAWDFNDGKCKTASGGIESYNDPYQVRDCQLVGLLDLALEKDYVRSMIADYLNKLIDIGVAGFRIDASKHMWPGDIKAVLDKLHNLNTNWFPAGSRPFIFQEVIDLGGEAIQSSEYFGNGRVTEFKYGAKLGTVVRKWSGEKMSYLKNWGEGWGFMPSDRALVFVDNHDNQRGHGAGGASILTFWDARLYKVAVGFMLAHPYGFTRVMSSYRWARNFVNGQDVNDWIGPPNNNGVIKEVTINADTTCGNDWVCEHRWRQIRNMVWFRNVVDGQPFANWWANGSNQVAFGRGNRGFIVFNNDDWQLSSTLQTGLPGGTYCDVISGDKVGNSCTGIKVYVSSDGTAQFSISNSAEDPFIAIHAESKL
As to the kind of experiment: starch-iodine colorimetric assay, […] nm. The experiment is classed as biochemical. The following applies: read-out: α-Amylase IC50 (mg/mL) (converted).

Take `CCCCCCCCCCCCCCCC(=O)O` [palmitic acid]: the IC50 was 5.93 mM.
